In patent US20210177814A1, “USE OF GUANABENZ OR DERIVATES THEREOF FOR THE TREATMENT OF TYPE I IFN-DEPENDENT PATHOLOGIES” (INSERM (Institut National de la Santé et de la Recherche …, priority 2018, published 2021):

System: endosomal TLRs
Assay: TMPD (pristane) + CpG ODN induced SLE model
Assay type: in vivo, mouse
Protocol: At day 7 mice were injected with CpG ODN 1585 (50 μg/20 g). Blood was collected once a month to dose the circulating autoantibodies level. Mice were sacrificed at week 24 after disease induction. (A) Flow cytometry analysis of peritoneum exudate cells populations (PEC) at day 14. […] Statistical significance was assigned using two tailed Student's t test (* p<0.05). (C) Level of circulating anti-RNA antibodies (normalized to control mice), anti-nuclear antibodies (arbitrary units), presence of lipogranulomas in the peritoneal cavity (arbitrary score) and glomerulopathy (histological score blindly determined by an anatomopathologist) at week 24. Statistical significance was assigned by a one-way ANOVA, followed by Tukey range test (* p<0.05;** p<0.005; ***p<0.0005.). N.S., not significant. n values in the figure indicate the number of mice.
Wild type female mice C57BL/6 of 6 weeks of age were injected i.p. with 500 μL of TMPD (Sigma Aldrich) or PBS. From day 1 to day 13 mice were injected i.p. every 2 days with GBZ or PBS/DMSO 2 mg/kg. Mice were injected i.p. at day 7 with ODN 1585 or PBS 50 μg/20 g of mouse. Mice were sacrificed at day 14 or after 6 months. At day 14, peritoneal exudate cells (PEC) were taken for flow cytometry analysis. After 6 months kidneys were taken for immunohistochemistry. During 6 months, blood serum collection was effectuated once a month, from month 2 after the injection of TMPD up to one week before the animal sacrifice. Serum was used to evaluate the concentration of circulating autoantibodies. Anti-RNA ELISA. Evaluation of autoantibodies against RNA was performed by coating ELISA plates with 50 μl/well of 5 μg/ml mouse RNA or DNA in PBS and incubated overnight at 4° C. Next day, the plates were incubated with 1:50 or 1:100 diluted serum samples in working solution (PBS+0.05% Tween20+1% BSA), and the assay was developed with HRP-labeled goat anti-mouse IgG (Southern Biotech).
Mouse kidney and liver were fixed in 10% buffered formalin for 24 h, then the tissues were dehydrated and embedded in paraffin. Tissue sections of 3.5 μm were cut using the microtom Leica RM2245. Hematoxylin-eosin staining was effectuated automatically with Leica autostainer XL. Finally, the slides were mounted with entellan and kept at room temperature. Biopsies were analyzed by an anatomopathologist and the clinical score was assigned in a blinded way. Pictures were taken with Nikon Eclipse.

[1] = 22 weeks after TMPD injection, vs TMPD and CpG only

## NC(N)=N/N=C/c1c(Cl)cccc1Cl [GBZ, 2-(2,6-dichlorobenzylidene)-hydrazinecarboximidamide]
[1]
  circulating anti-RNA immunoglobulins titer: substantially lower
  circulating anti-nuclear immunoglobulins titer: substantially lower
C57BL/6, control vs GBZ-treated animals
  Ig-complexes deposits in the kidneys (glomerulonephritis): unable to induce overall sufficient glomerulonephritis to observe significant differences
GBZ-treated vs TMPD and CpG only
  lipogranulomas in the peritoneal cavity: considerably smaller numbers
TMPD+CpG injected mice, recurrent GBZ injections
  transcriptional up-regulation of TNF-α, ISG 15 and CH25H in PECs (qPCR): strongly inhibited
Day 14, GBZ 2 mg/kg i.p. every 2 days, day 1 to 13
  immune cells migration into or from the peritoneal cavity (PEC flow cytometry): did not prevent
